Test results published in US9828338B2, “Carbamate derivatives of lactam based N-acylethanolamine acid amidase (NAAA) inhibitors” (The Regents of the University of California, priority 2013, dated 2017).

Columns and labels:
human NAAA = target: T1, human NAAA (Homo sapiens, UniProt Q02083); test: Fluorogenic h-NAAA assay; type: biochemical; conditions: for inhibition at […]: @ 2.5 μM; for inhibition at […] / inhibition at 50 µM: read-out: h-NAAA Fluorogenic assay % inhib.
T1 construct: made in house; host or cells: HEK293 cells, stably transfected; soluble lysosomal fraction used as enzyme source
T1 sequence (Q02083 29-359): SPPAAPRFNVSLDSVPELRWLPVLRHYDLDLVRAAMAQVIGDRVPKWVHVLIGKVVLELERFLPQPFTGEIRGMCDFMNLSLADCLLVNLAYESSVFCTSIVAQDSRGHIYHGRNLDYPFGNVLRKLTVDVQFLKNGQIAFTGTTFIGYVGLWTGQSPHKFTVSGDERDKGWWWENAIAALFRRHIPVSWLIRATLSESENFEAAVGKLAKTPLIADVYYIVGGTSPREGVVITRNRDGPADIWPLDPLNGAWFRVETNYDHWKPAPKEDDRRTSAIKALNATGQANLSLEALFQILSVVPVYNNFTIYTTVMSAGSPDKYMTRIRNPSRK
Protocol: Hek293 cells stably transfected with the human NAAA coding sequence cloned from a human spleen cDNA library were used as enzyme source. Recombinant HEK-hNAAA pellets were resuspended in homogenizing buffer, and sonicated. Samples were centrifuged at 800×g for 15 min at 4° C. and the resultant supernatants were then ultracentrifuged at 12,000×g for 30 min at 4° C. The pellets were resuspended in PBS pH 7.4 on ice and subjected to a freeze/thaw cycle at −80° C. The suspension was finally centrifuged at 105,000×g for 1 h at 4° C. Protein concentration was measured and samples aliquoted and stored at −80° C. until use.
The assay was run in Optiplate 96-wells black plates, in a total reaction volume of 200 μL. NAAA protein preparation (4.0 μg) was pre-incubated for 10 min with various concentrations of test compounds or vehicle control (5% DMSO) in 100 mM citrate/phosphate buffer (pH 4.5) containing 3.0 mM DTT, 0.1% Triton X-100, 0.05% BSA, 150 mM NaCl. N-(4-methyl-2-oxo-chromen-7-yl)-hexadecanamide was used as a substrate (5.0 μM) and the reaction carried over for 30 min at 37° C. The samples were then read in a Perkin Elmer Envision plate reader using an excitation wavelength of 360 nm and emission 460 nm. IC50 values were calculated by non-linear regression analysis of log [concentration]/inhibition curves using GraphPad Prism 5 (GraphPad Software Inc., CA—USA) applying a standard slope curve fitting.

r-NAAA = target: T2, r-NAAA (Rattus norvegicus, UniProt Q5KTC7); test: UPLC/MS r-NAAA assay; type: biochemical
T2 construct: Lysosomal NAAA protein preparation was obtained by homogenizing male Sprague-Dawley rat lungs; tissue Charles River (animals); host or cells: male Sprague-Dawley rat lung, soluble lysosomal fraction
T2 sequence (Q5KTC7 34-362): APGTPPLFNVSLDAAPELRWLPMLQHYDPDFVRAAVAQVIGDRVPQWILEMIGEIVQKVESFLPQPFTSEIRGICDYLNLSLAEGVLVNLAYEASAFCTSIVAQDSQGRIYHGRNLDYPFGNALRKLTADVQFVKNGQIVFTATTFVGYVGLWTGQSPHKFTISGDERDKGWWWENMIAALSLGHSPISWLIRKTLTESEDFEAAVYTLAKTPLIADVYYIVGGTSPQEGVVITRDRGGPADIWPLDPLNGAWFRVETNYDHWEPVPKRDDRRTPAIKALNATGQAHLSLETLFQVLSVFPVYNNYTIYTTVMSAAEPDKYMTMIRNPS
Protocol: Lysosomal NAAA protein preparation was obtained by homogenizing male Sprague-Dawley rat lungs (Charles River) in 20 mM Tris-HCl buffer pH 7.4 containing 0.32M sucrose. […] Supernatants were then centrifuged at 12,000 xg for 30 min at 4° C. Pellets were then resuspended in PBS pH 7.4 and subjected to a freeze/thaw cycle at −80° C. The suspension was finally centrifuged at 105,000×g for 1 h at 4° C. The supernatant was then used in the enzymatic assay.
NAAA protein preparation was pre-incubated with various concentrations of test compounds or vehicle control in 100 mM NaH2PO4/Citrate buffer, 1% Triton-X, 3 mM DTT (pH 4.5) for 30 min at 37° C. Samples were then incubated with heptadecenoylethanolamide (50 μM, Avanti Polar Lipids) at 37° C. for 30 min. The reaction was terminated by addition of cold methanol containing heptadecanoic acid (NuCheck Prep) as internal standard. Samples were then analyzed by UPLC/MS (Acquity, Waters). […] The column temperature was 40° C. Electrospray ionization was in the negative mode, capillary voltage was 0.5 kV, cone voltage was […], desolvation temperature was 500° C. N2 was used as drying gas at a flow rate of 1000 L/hour and a temperature of 500° C. […] Calibration curves were generated using commercial heptadecenoic acid (NuCheck Prep) Inhibition of NAAA activity was calculated as reduction of heptadecenoic acid in the samples compared to vehicle controls. IC50 values were calculated by non-linear regression analysis of log [concentration]/inhibition curves using GraphPad Prism 5 (GraphPad Software Inc., CA—USA) applying a standard slope curve fitting.

Q: For O=C(N[C@H]1CNC1=O)OCc1ccc(OC2CC3CCC2C3)cc1 (mixture of isomers) [Example 102, 4-[(1R,2R,4S)- and (1S,2S,4R)-Norbornan-2-yl]-oxyphenyl]-methyl-N-[(3S)-2-oxoazetidin-3-yl]-carbamate], which inhibition at […] (human NAAA) is on record?
A: Its inhibition at […] is 95%.

Q: Which inhibition at […] (human NAAA) does the source give for O=C(N[C@H]1CNC1=O)OCCCc1ccccc1 [Example 27, 3-Phenylpropyl-N-[(3S)-2-oxoazetidin-3-yl]-carbamate] here?
A: The inhibition at […] was 45%.

Q: Which inhibition at 50 µM (human NAAA) does the source give for O=C(N[C@H]1CNC1=O)OCCc1ccccc1 [Example 28, Phenethyl-N-[(3S)-2-oxoazetidin-3-yl]-carbamate] here?
A: The inhibition at 50 µM was 65%.

Q: How did the inhibition at 50 µM (human NAAA) turn out when O=C(N[C@H]1CNC1=O)OCCCCc1cccnc1 [Example 47, 4-(3-Pyridyl)-butyl-N-[(3S)-2-oxoazetidin-3-yl]-carbamate] was run?
A: The inhibition at 50 µM was 55%.

Q: For O=C(N[C@H]1CNC1=O)OCCCOC1CCCCC1 [Example 50, 3-(Cyclohexoxy)-propyl-N-[(3S)-2-oxoazetidin-3-yl]-carbamate], which inhibition at […] (human NAAA) is on record?
A: Its inhibition at […] is 25%.

Q: For O=C(N[C@H]1CNC1=O)OCc1ccc(C(=O)N2CCOCC2)cc1 [Example 53, [4-(Morpholine-4-carbonyl)-phenyl]-methyl-N-[(3S)-2-oxoazetidin-3-yl]-carbamate], which inhibition at 50 µM (human NAAA) is on record?
A: Its inhibition at 50 µM is 55%.

Q: With O=C(N[C@H]1CNC1=O)OCc1ccc(-c2nc3ccccc3o2)cc1 [Example 54, [4-(1,3-Benzoxazol-2-yl)-phenyl]-methyl-N-[(3S)-2-oxoazetidin-3-yl]-carbamate] as the compound, how does the IC50 (human NAAA) read?
A: Its IC50 is 675 nM.

Q: O=C(N[C@H]1CNC1=O)OCc1ccc(-c2ccccc2)c(F)c1 [Example 60, (3-Fluoro-4-phenyl-phenyl)-methyl-N-[(3S)-2-oxoazetidin-3-yl]-carbamate] was tested. Which IC50 (human NAAA) did it give?
A: The IC50 was 237 nM.

Q: Which inhibition at […] (human NAAA) does the source give for O=C(N[C@H]1CNC1=O)OCc1ccc(-c2ccccc2)nc1 [Example 67, (6-Phenyl-3-pyridyl)-methyl-N-[(3S)-2-oxoazetidin-3-yl]-carbamate] here?
A: The inhibition at […] was 60%.

Q: O=C(N[C@H]1CNC1=O)OCc1ccc(C(=O)NC2CCCCC2)cc1 [Example 68, [4-(Cyclohexylcarbamoyl)-phenyl]-methyl-N-[(3S)-2-oxoazetidin-3-yl]-carbamate] was tested. Which inhibition at […] (human NAAA) did it give?
A: The inhibition at […] was 18%.

Q: How did the inhibition at […] (human NAAA) turn out when O=C(N[C@H]1CNC1=O)OCc1ccc(C(=O)N2CCCCC2)cc1 [Example 69, [4-(Piperidine-1-carbonyl)-phenyl]-methyl-N-[(3S)-2-oxoazetidin-3-yl]-carbamate] was run?
A: Its inhibition at […] is 12%.

Q: With O=C(N[C@H]1CNC1=O)OCc1ccc(C(=O)NCc2ccccc2)cc1 [Example 70, [4-(Benzylcarbamoyl)-phenyl]-methyl-N-[(3S)-2-oxoazetidin-3-yl]-carbamate] as the compound, how does the inhibition at […] (human NAAA) read?
A: Its inhibition at […] is 40%.

Q: O=C(N[C@H]1CNC1=O)OCc1ccc(-c2ccccc2F)cc1 [Example 71, [4-(2-Fluorophenyl)-phenyl]-methyl-N-[(3S)-2-oxoazetidin-3-yl]-carbamate] was tested. Which IC50 (human NAAA) did it give?
A: The IC50 was 365 nM.

Q: C[C@H]1NC(=O)[C@@H]1NC(=O)OCCCCC1CCCCC1 [Example 80, 4-Cyclohexylbutyl-N-[(2R,3R)-2-methyl-4-oxo-azetidin-3-yl]-carbamate] was tested. Which IC50 (r-NAAA) did it give?
A: The IC50 was 21500 nM.

Q: For C[C@H]1NC(=O)[C@@H]1NC(=O)OCc1ccc(-c2ccccc2)cc1 [Example 81, (4-Phenylphenyl)-methyl-N-[(2R,3R)-2-methyl-4-oxo-azetidin-3-yl]-carbamate], which “r-NAAA UPLC/MS assay (n.a.)” value (r-NAAA; @100 μM) is on record?
A: Its value is “n.a. (n.a. = <10% inhib. @100 μM)”.

Q: For C[C@H]1NC(=O)[C@@H]1NC(=O)OCc1ccc(C2CCCCC2)cc1 [Example 82, (4-Cyclohexylphenyl)-methyl-N-[(2R,3R)-2-methyl-4-oxo-azetidin-3-yl]-carbamate], which IC50 (r-NAAA) is on record?
A: The IC50 was 5100 nM.

Q: How did the IC50 (r-NAAA) turn out when C[C@@H]1NC(=O)[C@@H]1NC(=O)OCCCCC1CCCCC1 [Example 83, 4-Cyclohexylbutyl-N-[(2S,3R)-2-methyl-4-oxo-azetidin-3-yl]-carbamate] was run?
A: Its IC50 is 4700 nM.

Q: With C[C@@H]1NC(=O)[C@@H]1NC(=O)OCc1ccc(-c2ccccc2)cc1 [Example 84, (4-Phenylphenyl)-methyl-N-[(2S,3R)-2-methyl-4-oxo-azetidin-3-yl]-carbamate] as the compound, how does the inhibition at […] (human NAAA) read?
A: The inhibition at […] was 18%.

Q: How did the IC50 (human NAAA) turn out when C[C@@H]1NC(=O)[C@@H]1NC(=O)OCc1ccc(C2CCCCC2)cc1 [Example 85, (4-Cyclohexylphenyl)-methyl-N-[(2S,3R)-2-methyl-4-oxo-azetidin-3-yl]-carbamate] was run?
A: The IC50 was 619 nM.

Q: With CC1(C)NC(=O)[C@H]1NC(=O)OCCCCC1CCCCC1 [Example 86, 4-Cyclohexylbutyl-N-[(3S)-2,2-dimethyl-4-oxo-azetidin-3-yl]-carbamate] as the compound, how does the inhibition at 100 µM (r-NAAA; @100 μM, read-out: r-NAAA UPLC/MS assay % inhib.) read?
A: The inhibition at 100 µM was 18%.

Q: With CC1(C)NC(=O)[C@H]1NC(=O)OCc1ccc(-c2ccccc2)cc1 [Example 87, (4-Phenylphenyl)-methyl-N-[(3S)-2,2-dimethyl-4-oxo-azetidin-3-yl]-carbamate] as the compound, how does the “r-NAAA UPLC/MS assay (n.a.)” value (r-NAAA; @100 μM) read?
A: Its value is “n.a. (n.a. = <10% inhib. @100 μM)”.

Q: For CC1(C)NC(=O)[C@H]1NC(=O)OCc1ccc(C2CCCCC2)cc1 [Example 88, (4-Cyclohexylphenyl)-methyl-N-[(3S)-2,2-dimethyl-4-oxo-azetidin-3-yl]-carbamate], which “r-NAAA UPLC/MS assay (n.a.)” value (r-NAAA; @100 μM) is on record?
A: The value was “n.a. (n.a. = <10% inhib. @100 μM)”.

Q: Which “r-NAAA UPLC/MS assay (n.a.)” value (r-NAAA; @100 μM) does the source give for CC1(C)NC(=O)[C@@H]1NC(=O)OCCCCC1CCCCC1 [Example 89, 4-Cyclohexylbutyl-N-[(3R)-2,2-dimethyl-4-oxo-azetidin-3-yl]-carbamate] here?
A: The value was “n.a. (n.a. = <10% inhib. @100 μM)”.

Q: For CC1(C)NC(=O)[C@@H]1NC(=O)OCc1ccc(-c2ccccc2)cc1 [Example 90, (4-Phenylphenyl)-methyl-N-[(3R)-2,2-dimethyl-4-oxo-azetidin-3-yl]-carbamate], which “r-NAAA UPLC/MS assay (n.a.)” value (r-NAAA; @100 μM) is on record?
A: The value was “n.a. (n.a. = <10% inhib. @100 μM)”.

Q: CC1(C)NC(=O)[C@@H]1NC(=O)OCc1ccc(C2CCCCC2)cc1 [Example 91, (4-Cyclohexylphenyl)-methyl-N-[(3R)-2,2-dimethyl-4-oxo-azetidin-3-yl]-carbamate] was tested. Which “r-NAAA UPLC/MS assay (n.a.)” value (r-NAAA; @100 μM) did it give?
A: Its value is “n.a. (n.a. = <10% inhib. @100 μM)”.

Q: With Cc1ccc(COC(=O)N[C@H]2CNC2=O)cc1 [Example 94, p-Tolylmethyl-N-[(3S)-2-oxoazetidin-3-yl]-carbamate] as the compound, how does the IC50 (human NAAA) read?
A: The IC50 was 1230 nM.

Q: Which inhibition at […] (human NAAA) does the source give for O=C(N[C@H]1CNC1=O)OCc1cnc(-c2ccccc2)nc1 [Example 98, (2-Phenylpyrimidin-5-yl)-methyl-N-[(3S)-2-oxoazetidin-3-yl]-carbamate] here?
A: The inhibition at […] was 26%.

Q: How did the inhibition at […] (human NAAA) turn out when O=C(N[C@H]1CNC1=O)OCC1CCC(F)(F)CC1 [Example 99, (4,4-Difluorocyclohexyl)-methyl-N-[(3S)-2-oxoazetidin-3-yl]-carbamate] was run?
A: The inhibition at […] was 35%.

Q: With O=C(N[C@H]1CNC1=O)OCc1ccc(I)cc1 [Example 101, (4-Iodophenyl)-methyl-N-[(3S)-2-oxoazetidin-3-yl]-carbamate] as the compound, how does the inhibition at […] (human NAAA) read?
A: Its inhibition at […] is 95%.

Q: C#CCCCCCCCCCOC(=O)N[C@H]1CNC1=O [Example 103, Undec-10-ynyl-N-[(3S)-2-oxoazetidin-3-yl]-carbamate] was tested. Which IC50 (human NAAA) did it give?
A: Its IC50 is 6 nM.

Q: CCC[C@H]1CC[C@H](COC(=O)N[C@H]2CNC2=O)CC1 [Example 104] was tested. Which IC50 (human NAAA) did it give?
A: Its IC50 is 6 nM.
